Assay results published in US20200109114A1, “SOLID STATE FORMS OF N-[2-[(I S)-1 -(3-ETHOXY-4-METHOXYPHENYL)-2-(METHYL SULFONYL)ETHYL]-2,3-DIHYDRO-1,3-DIOXO-L H-ISOINDOL-4-YL]ACETAMIDE AND PROCESS FOR PREPARATION THEREOF” (MSN LABORATORIES PRIVATE LIMITED, R&D CENTER, priority 2016, published 2020).

Experiments:
[1] = Hygroscopicity of crystalline form-M; assay type: physicochemical
Description: The crystalline form-M of compound of formula-1 of the present invention is non-hygroscopic in nature which is highly advantageous for the formulators.

[2] = Solid state stability of crystalline form-M at various conditions (stress, UV light, thermal, humidity); assay type: physicochemical
Description: The crystalline form-M of the present invention is stable at various conditions viz.,
a) Stress (10 ton pressure, 3 min) b) UV light (254 nm, 24 hrs) c) Thermal (60° C., 24 hrs) d) Hygroscopicity (75% RH, 24 hrs))

- hygroscopic nature [1]: non-hygroscopic
- stability under hygroscopicity condition ([2]; Hygroscopicity (75% RH, 24 hrs)): stable
- stability under stress ([2]; Stress (10 ton pressure, 3 min)): stable
- thermal stability ([2]; Thermal (60° C., 24 hrs)): stable
- stability under UV light ([2]; UV light (254 nm, 24 hrs)): stable
SMILES: CCOc1cc([C@@H](CS(C)(=O)=O)N2C(=O)c3cccc(NC(C)=O)c3C2=O)ccc1OC [crystalline form-M, N-[2-[(1S)-1-(3-ethoxy-4-methoxyphenyl)-2-(methylsulfonyl)ethyl]-2,3-dihydro-1,3-dioxo-1H-isoindol-4-yl]acetamide]
